The source of these data is US10111873B1, “Dihydropyrimidinone derivatives” (KING SAUD UNIVERSITY, priority 2018, dated 2018).

The melting point is the temperature of the solid-liquid transition.

In turn, `O=C1NC=C(C(=O)c2ccc(N3CCNCC3)cc2)C(c2ccc(O)cc2)N1` (stereo not shown) [DHPM-7, 4-(4-Hydroxyphenyl)-5-[4-(piperazin-1-yl)benzoyl]-3,4-dihydropyrimidin-2(1H)-one] returned a melting point of 210 to 212 °C. For the compound `COc1ccccc1C1NC(=O)NC=C1C(=O)c1ccc(N2CCNCC2)cc1` (stereo not shown) [DHPM-6, 4-(2-methoxyphenyl)-5-[4-(piperazin-1-yl)benzoyl]-3,4-dihydropyrimidin-2(1H)-one], the melting point lay in the range of 120 to 122 °C. Then `COc1ccccc1C1NC(=O)NC=C1C(=O)c1ccc(N2CCOCC2)cc1` (stereo not shown) [DHPM-16, 4-(2-methoxyphenyl)-5-[4-(morpholin-4-yl)benzoyl]-3,4-dihydropyrimidin-2(1H)-one], with 178 to 180 °C; and `O=C1NC=C(C(=O)c2ccc(N3CCOCC3)cc2)C(c2ccc(O)cc2)N1` (stereo not shown) [DHPM-17, 4-(4-hydroxyphenyl)-5-[4-(morpholin-4-yl)benzoyl]-3,4-dihydropyrimidin-2(1H)-one], with 118 to 120 °C. Regarding `O=C1NC=C(C(=O)c2ccc(N3CCNCC3)cc2)C(c2cccc(O)c2)N1` (stereo not shown) [DHPM-8, 4-(3-Hydroxyphenyl)-5-[4-(piperazin-1-yl)benzoyl]-3,4-dihydropyrimidin-2(1H)-one], the melting point is 158 to 160 °C.

Compound `O=C1NC=C(C(=O)c2ccc(N3CCNCC3)cc2)C(c2ccccc2[N+](=O)[O-])N1` (stereo not shown) [DHPM-2, 4-(2-Nitrophenyl)-5-[4-(piperazin-1-yl)benzoyl]-3,4-dihydropyrimidin-2(1H)-one] came in with a melting point of 170 to 172 °C. Then `COc1cccc(C2NC(=O)NC=C2C(=O)c2ccc(N3CCNCC3)cc2)c1` (stereo not shown) [DHPM-9, 4-(3-methoxyphenyl)-5-[4-(piperazin-1-yl)benzoyl]-3,4-dihydropyrimidin-2(1H)-one], with 118 to 120 °C. Then `CCOc1ccc(C2NC(=O)NC=C2C(=O)c2ccc(N3CCOCC3)cc2)cc1` (stereo not shown) [DHPM-20, 4-(4-ethoxyphenyl)-5-[4-(morpholin-4-yl)benzoyl]-3,4-dihydropyrimidin-2(1H)-one], with 200 to 202 °C. Then `O=C1NC=C(C(=O)c2ccc(N3CCOCC3)cc2)C(c2ccccc2[N+](=O)[O-])N1` (stereo not shown) [DHPM-12, 5-[4-(morpholin-4-yl)benzoyl]-4-(2-nitrophenyl)-3,4-dihydropyrimidin-2(1H)-one], with 198 to 200 °C; and `O=C1NC=C(C(=O)c2ccc(N3CCNCC3)cc2)C(c2ccccc2)N1` (stereo not shown) [DHPM-1, 4-phenyl-5-[4-(piperazin-1-yl)benzoyl]-3,4-dihydropyrimidin-2(1H)-one], with 150 to 152 °C; and `CCOc1cccc(C2NC(=O)NC=C2C(=O)c2ccc(N3CCNCC3)cc2)c1` (stereo not shown) [DHPM-10, 4-(3-Ethoxyphenyl)-5-[4-(piperazin-1-yl)benzoyl]-3,4-dihydropyrimidin-2(1H)-one], with 88 to 90 °C. Take `O=C1NC=C(C(=O)c2ccc(N3CCOCC3)cc2)C(c2ccccc2)N1` (stereo not shown) [DHPM-11, 5-[4-(morpholin-4-yl)benzoyl]-4-phenyl-3,4-dihydropyrimidin-2(1H)-one]: the melting point was 258 to 260 °C. `O=C1NC=C(C(=O)c2ccc(N3CCNCC3)cc2)C(c2ccc(Cl)cc2)N1` (stereo not shown) [DHPM-5, 4-(4-Chlorophenyl)-5-[4-(piperazin-1-yl)benzoyl]-3,4-dihydropyrimidin-2(1H)-one] showed a melting point of 160 to 162 °C.

On to `O=C1NC=C(C(=O)c2ccc(N3CCNCC3)cc2)C(c2cccc([N+](=O)[O-])c2)N1` (stereo not shown) [DHPM-4, 4-(3-Nitrophenyl)-5-[4-(piperazin-1-yl)benzoyl]-3,4-dihydropyrimidin-2(1H)-one], for which the melting point lay within 180 to 182 °C.

With `O=C1NC=C(C(=O)c2ccc(N3CCOCC3)cc2)C(c2ccc([N+](=O)[O-])cc2)N1` (stereo not shown) [DHPM-13, 5-[4-(morpholin-4-yl)benzoyl]-4-(4-nitrophenyl)-3,4-dihydropyrimidin-2(1H)-one], the melting point lay within 202 to 204 °C.

As to `O=C1NC=C(C(=O)c2ccc(N3CCNCC3)cc2)C(c2ccc([N+](=O)[O-])cc2)N1` (stereo not shown) [DHPM-3, 4-(4-Nitrophenyl)-5-[4-(piperazin-1-yl)benzoyl]-3,4-dihydropyrimidin-2(1H)-one], the melting point lay within 175 to 177 °C. Then `O=C1NC=C(C(=O)c2ccc(N3CCOCC3)cc2)C(c2ccc(Cl)cc2)N1` (stereo not shown) [DHPM-15, 4-(4-chlorophenyl)-5-[4-(morpholin-4-yl)benzoyl]-3,4-dihydropyrimidin-2(1H)-one], with 288 to 290 °C; and `O=C1NC=C(C(=O)c2ccc(N3CCOCC3)cc2)C(c2cccc([N+](=O)[O-])c2)N1` (stereo not shown) [DHPM-14, 5-[4-(morpholin-4-yl)benzoyl]-4-(3-nitrophenyl)-3,4-dihydropyrimidin-2(1H)-one], with 205 to 207 °C. Then `O=C1NC=C(C(=O)c2ccc(N3CCOCC3)cc2)C(c2cccc(O)c2)N1` (stereo not shown) [DHPM-18, 4-(3-hydroxyphenyl)-5-[4-(morpholin-4-yl)benzoyl]-3,4-dihydropyrimidin-2(1H)-one], with 120 to 122 °C.
